Results: patent US8883798B2, “Pyrimidine compounds inhibiting the formation of nitric oxide and prostaglandin E2, method of production thereof and use thereof” (Ustav Organicke Chemie a Biochemie Akademie Ved CR, V.V.I., priority 2011, dated 2014)

Tests used:
peritoneal cells of mice = test: Cell viability of mouse peritoneal cells (WST-1 kit); type: cell-based; conditions: substance 50 μmol·l^−1, 24 h; for Cell viability in % of the controls: Table 3A; for Cell viabilities in % of the controls: Table 3B
Experimental: Cell viability was determined in the standard way using a WST-1 kit (Roche). The values of the viability of the control cells were for the purposes of comparison between experiments considered as 100%. The influence of the substances on the longevity of the cells was evaluated in percentage with respect to the control values.
(§1) Experiments were performed on mice peritoneal cells C57BL/6 (Charles River, Germany—AnLabu).
(§2) NO production was induced using IFN-g (5000 pg/mL) plus LPS (100 pg/mL); evaluated (Griess reagent) after 24 h of the cell cultivation (2×10^6/mL). PGE2 was induced using LPS (10 ng/mL); evaluated (ELISA) following 6 h cultivation of cells (3×10^6/mL). Cell longevity was evaluated using WST-1 (tetrazolium salt), following 24 h cultivation of cells (1×10^6/mL). The values mentioned in the table represent the effects of the substances tested in a concentration of 50 μmol·l^−1.

[1] = tested on: production of nitric oxide (NO); test: Production of nitric oxide (NO) in cultures of mouse peritoneal cells stimulated with IFN-γ plus LPS (Griess reagent); type: cell-based, mice; conditions: substance 50 μmol·l^−1, IFN-g plus LPS, 24 h
Experimental: (§3) Under in vitro conditions, the effect of the pyrimidine compounds according to this invention was tested in terms of the production of nitric oxide (NO) and in terms of the production of prostaglandin E2 (PGE2) in cultures of the peritoneal cells of mice.
NO is a product of the metabolism of L-arginine, quickly changes to […], which are then measured using the Griess reagent system. Under normal conditions, the production of NO is practically zero. It only occurs after some stimulation. In these experiments, interferon-gamma (IFN-γ) and bacterial lipopolysacharide (LPS) were used as stimulators. The values of NO induced in this way fluctuated in the individual experiments in a range from 52 to 89 μmol·l^−1; for the purposes of comparison between the experiments they were considered as 100%. The production of NO after the application of the substances was expressed in percentage with respect to the control values. (The lower the value, the higher the inhibition effect of the substances on NO production.) IC50 are the concentrations of the substances reducing the production of NO by 50% with respect to the controls.
as §1, §2

[2] = tested on: production of prostaglandin E2 (PGE2); test: Production of prostaglandin E2 (PGE2) in cultures of mouse peritoneal cells stimulated with LPS (ELISA kit); type: cell-based, mice; conditions: for Production of prostaglandins IC50 (μmol · 1^−1) average value and range of values: Table 3B, 6 h; for Production of prostaglandins in % of the controls: Table 3A, substance 50 μmol·l^−1, 6 h
Experimental: as §3
The influence on the production of prostaglandin E2 (PGE2) in vitro caused by the activity of the pyrimidine compounds according to the submitted invention was determined in cultures of the peritoneal cells of mice using a commercial kit (R&DSystems). The concentrations of PGE2 after lipopolysacharide (LPS) stimulation reached in the individual experiments values in a range of 22 to 91 ng·ml^−1 and for the purposes of comparison between the experiments were considered as 100%. The influence of the substances on the production of PGE2 was evaluated in percentage with respect to the control values.
as §1, §2

SMILES | Cell viability in % of the controls (peritoneal cells of mice) | Production of nitric oxide in % of the controls ([1]; Table 3A) | other results
CCC(C)c1c(Cl)nc(N)nc1Cl (stereo not drawn) [Substance 30] | 111.90 ± 9.63 % of the controls | 47.48 ± 6.22 % of the controls | 
CCCCc1c(-c2ccoc2)nc(N)nc1-c1ccoc1 [Substance 105] |  |  | Cell viabilities in % of the controls (peritoneal cells of mice): 101.86 ± 5.13; n = 4 % of the controls; Production of prostaglandins IC50 (μmol · 1^−1) average value and range of values [2]: 50.30 ± 9.52; n = 4 μmol · 1^−1; Production of nitric oxide in % of the controls ([1]; Table 3B): 49.07 ± 4.67; n = 4 % of the controls
CCCCc1c(-c2ccc(F)cc2)nc(N)nc1-c1cccnc1 [Substance 79] |  |  | Cell viabilities in % of the controls (peritoneal cells of mice): 104.50 ± 6.37; n = 8 % of the controls; Production of prostaglandins IC50 (μmol · 1^−1) average value and range of values [2]: 47.26 ± 5.67; n = 2 μmol · 1^−1; Production of nitric oxide in % of the controls ([1]; Table 3B): 62.58 ± 2.32; n = 6 % of the controls
Nc1nc(I)c(Cc2ccccc2)c(I)n1 [Substance 38] | 78.60 ± 5.33 % of the controls | 34.80 ± 0.31 % of the controls | 
CCCc1c(Cl)nc(NC=O)nc1Cl [Substance 50] | 98.59 ± 6.59 % of the controls | 3.95 ± 2.27 % of the controls | Production of prostaglandins in % of the controls [2]: 14.20 ± 7.00 % of the controls
CCCCc1c(-c2ccccn2)nc(N)nc1-c1cccs1 [Substance 89] |  |  | Cell viabilities in % of the controls (peritoneal cells of mice): 104.15 ± 10.36; n = 8 % of the controls; Production of prostaglandins IC50 (μmol · 1^−1) average value and range of values [2]: 92.30 ± 9.20; n = 4 μmol · 1^−1; Production of nitric oxide in % of the controls ([1]; Table 3B): 19.62 ± 4.08; n = 6 % of the controls
CCCCc1c(-c2ccco2)nc(N)nc1-c1cc2ccccc2s1 [Substance 131] |  |  | Cell viabilities in % of the controls (peritoneal cells of mice): 98.88 ± 1.65; n = 8 % of the controls; Production of prostaglandins IC50 (μmol · 1^−1) average value and range of values [2]: 83.56 ± 5.83; n = 4 μmol · 1^−1; Production of nitric oxide in % of the controls ([1]; Table 3B): 49.76 ± 4.85; n = 4 % of the controls
CCCCc1c(Cl)nc(N)nc1-c1ccccc1 [Substance 41] | 108.24 ± 7.40 % of the controls | 47.82 ± 6.08 % of the controls | 
CCCCc1c(Cl)nc(N)nc1-c1ccncc1 [Substance 85] |  |  | Cell viabilities in % of the controls (peritoneal cells of mice): 87.62 ± 6.58; n = 4 % of the controls; Production of nitric oxide in % of the controls ([1]; Table 3B): 49.34 ± 4.20; n = 4 % of the controls
CC(C)c1c(Cl)nc(N)nc1Cl [Substance 29] | 91.18 ± 9.90 % of the controls | 36.97 ± 8.22 % of the controls | 
CCCCc1c(Cl)ncnc1Cl [Substance 61] | 73.73 ± 0.99 % of the controls | 27.38 ± 1.88 % of the controls | 
Nc1nc(Cl)c(-c2ccccc2)c(Cl)n1 [Substance 31] | 82.53 ± 8.73 % of the controls | 36.11 ± 8.38 % of the controls | 
CCCCc1c(-c2cc3ccccc3o2)nc(N)nc1-c1cc2ccccc2o1 [Substance 47] | 75.01 ± 13.63 % of the controls | 41.23 ± 18.49 % of the controls | 
CCCCCCc1c(Cl)nc(N=CN(C)C)nc1Cl [Substance 22] |  | 61.34 ± 3.91 % of the controls | 
CCCCc1c(Cl)nc(C)nc1Cl [Substance 62] | 80.93 ± 0.84 % of the controls | 41.21 ± 5.50 % of the controls | 
CCC(C)c1c(Cl)nc(N)nc1I (stereo not drawn) [Substance 37] | 49.11 ± 3.29 % of the controls | 6.67 ± 5.15 % of the controls | 
CCc1c(Cl)nc(N)nc1Cl [Substance 26] | 91.53 ± 10.78 % of the controls | 48.59 ± 9.49 % of the controls | 
CCCCc1c(Cl)nc(N(C)C)nc1Cl [Substance 63] |  | 64.97 ± 2.92 % of the controls | 

SMILES | Cell viability in % of the controls (peritoneal cells of mice) | Production of nitric oxide in % of the controls ([1]; Table 3A) | other results
CCCCc1c(-c2cccnc2)nc(N)nc1-c1cccnc1 [Substance 81] |  |  | Cell viabilities in % of the controls (peritoneal cells of mice): 82.21 ± 7.34; n = 8 % of the controls; Production of nitric oxide in % of the controls ([1]; Table 3B): 50.07 ± 3.04; n = 6 % of the controls
CCCCCCc1c(Cl)nc(NC=O)nc1Cl [Substance 55] | 144.97 ± 18.27 % of the controls | 14.77 ± 9.19 % of the controls | 
CCCCc1c(Cl)nc(N)nc1-c1ccsc1 [Substance 42] | 157.36 ± 5.16 % of the controls | 63.18 ± 0.89 % of the controls | 
C#CCc1c(Cl)nc(NC=O)nc1Cl [Substance 58] |  | 0.69 ± 0.26 % of the controls | Production of prostaglandins in % of the controls [2]: 12.30 ± 0.54 % of the controls
Cc1c(Cl)nc(N)nc1Cl [Substance 25] | 98.55 ± 17.60 % of the controls | 47.30 ± 13.48 % of the controls | 
CCCCc1c(-c2ccncc2)nc(N)nc1-c1ccc(OC)cc1 [Substance 83] |  |  | Cell viabilities in % of the controls (peritoneal cells of mice): 95.41 ± 4.70; n = 8 % of the controls; Production of nitric oxide in % of the controls ([1]; Table 3B): 63.81 ± 5.32; n = 6 % of the controls
CCCCc1c(-c2ccncc2)nc(N)nc1-c1cccnc1 [Substance 84] |  |  | Cell viabilities in % of the controls (peritoneal cells of mice): 109.54 ± 4.48; n = 8 % of the controls; Production of nitric oxide in % of the controls ([1]; Table 3B): 47.55 ± 7.12; n = 6 % of the controls
CCCCc1c(Cl)nc(N)nc1-c1cc2ccccc2o1 [Substance 44] | 147.78 ± 5.90 % of the controls | 62.62 ± 0.19 % of the controls | 
C#CCc1c(Cl)nc(N)nc1Cl [Substance 33] | 90.58 ± 17.05 % of the controls | 35.98 ± 14.08 % of the controls | 
C=C(Cl)Cc1c(Cl)nc(NC=O)nc1Cl [Substance 60] | 37.13 ± 1.27 % of the controls | 0.13 ± 0.13 % of the controls | 
CCCCc1c(Cl)nc(N)nc1-c1cccnc1 [Substance 43] | 166.77 ± 22.51 % of the controls | 58.68 ± 0.92 % of the controls | 
CCCCc1c(Cl)nc(N)nc1-c1cccs1 [Substance 93] |  |  | Cell viabilities in % of the controls (peritoneal cells of mice): 74.47 ± 0.81; n = 4 % of the controls; Production of prostaglandins IC50 (μmol · 1^−1) average value and range of values [2]: 11.47 ± 2.73; n = 4 μmol · 1^−1
CCC(C)c1c(I)nc(N)nc1I (stereo not drawn) [Substance 36] |  | 2.80 ± 1.28 % of the controls | 
Nc1nc(Cl)c(Cc2ccccc2)c(I)n1 [Substance 39] | 67.81 ± 3.08 % of the controls | 18.30 ± 7.66 % of the controls | 
Nc1nc(Br)c(Cc2ccccc2)c(Br)n1 [Substance 40] | 90.18 ± 3.75 % of the controls | 32.45 ± 10.99 % of the controls | 
CCCCc1c(-c2cccnc2)nc(N)nc1-c1cccnc1 [Substance 46] | 107.08 ± 2.94 % of the controls | 70.00 ± 4.82 % of the controls | 
CCCCc1c(-c2ccccc2)nc(N)nc1-c1ccccc1 [Substance 45] | 297.33 ± 23.17 % of the controls | 73.29 ± 1.40 % of the controls | 
